Laboratory results from patent US20230293407A1, “Compositions Comprising (Bio)-Alkanediols with Antimicrobials for Product Protection” (Symrise AG, priority 2020, published 2023).

Tests used:
[1] = maximum water solubility of alkanediols, visual observation; type: physicochemical; settings: ambient temperature after 24 h storage at 5° C.
Excerpt: The water solubility of a substance is the saturation mass concentration of the substance in water at a given temperature. The determination of the solubility in water relates to essentially pure substances which are stable in water and not volatile. The determination of the water solubility of the alkanediols is further described in the following Example 2.
For the determination of the maximum water solubility of an alkanediol, water and different concentrations of the respective alkanediol were blended by stirring. […] The determination of whether the alkanediol has dissolved in water is based entirely on visual observation.

Pseudomonas aeruginosa = test: preservation efficacy test (PET), European Pharmacopoeia 5.1.3; type: cell-based; settings: for PA germ count, 2 days / PA germ count, 7 days / PA germ count, 14 days / PA germ count, 28 days: substance at given % in test formulation; for count at 2 days / count at 7 days / count at 14 days / count at 28 days: PA, use concentration in label
Staphylococcus aureus = test: as above; type: cell-based; settings: for number of microorganisms, 14 days / number of microorganisms, 28 days / number of microorganisms, 7 days: Staphylococcus aureus (SA)
Escherichia coli = test: as above; type: cell-based
Candida albicans = test: as above; type: cell-based; settings: for number of microorganisms, 28 days: Candida albicans (CA); for count at 14 days: 14 days after inoculation
yeast = test: preservation efficacy test (PET), overview of the effect against yeast; type: cell-based, Candida albicans; settings: PET in a shampoo formulation, result in words on Table 8
Aspergillus brasiliensis = test: preservation efficacy test (PET), European Pharmacopoeia 5.1.3; type: cell-based; settings: for count at 7 days: 7 days after inoculation; for count at 28 days: 28 days after inoculation
[2] = 2 days after inoculation, o/w emulsion (Table 53)
[3] = 7 days after inoculation, o/w emulsion (Table 53)
[4] = 14 days after inoculation, o/w emulsion (Table 53)
[5] = 28 days after inoculation, o/w emulsion (Table 53)
[6] = 7 days after inoculation, substance at given % in test formulation
[7] = 14 days after inoculation, substance at given % in test formulation
[8] = 28 days after inoculation, substance at given % in test formulation
[9] = PET in shampoo, 14 days after inoculation
[10] = PET in shampoo, 28 days after inoculation
[11] = PET, Escherichia coli (EC), 28 days after inoculation
[12] = SA, 7 days after inoculation, use concentration in label
[13] = EC, 2 days after inoculation, use concentration in label
[14] = EC, 7 days after inoculation, use concentration in label
[15] = EC, 14 days after inoculation, use concentration in label
[16] = CA, 28 days after inoculation, use concentration in label
[17] = AB, 14 days after inoculation, use concentration in label

SMILES: CCCCCCC(O)CO (stereo not drawn) [Hydrolite ® 8]
- Maximum solubility in water [1]: 0.5 % by weight

SMILES: CCCCC(O)C(C)O (stereo not drawn) [2,3-heptanediol]
- germ count PA, 2 days (Pseudomonas aeruginosa; [2]): 1
- PA germ count, 2 days (Pseudomonas aeruginosa; 2 days after inoculation): 1
- germ count PA, 7 days (Pseudomonas aeruginosa; [3]): 1
- PA germ count, 7 days (Pseudomonas aeruginosa; 7 days after inoculation): 1
- germ count PA, 14 days (Pseudomonas aeruginosa; [4]): 1
- PA germ count, 14 days (Pseudomonas aeruginosa; 14 days after inoculation): 1
- germ count PA, 28 days (Pseudomonas aeruginosa; [5]): 1
- PA germ count, 28 days (Pseudomonas aeruginosa; 28 days after inoculation): 1
- germ count SA, 7 days (Staphylococcus aureus; [3]): 790.000
- SA germ count, 7 days (Staphylococcus aureus; [6]): 790.000
- germ count SA, 14 days (Staphylococcus aureus; [4]): 55
- SA germ count, 14 days (Staphylococcus aureus; [7]): 55
- germ count SA, 28 days (Staphylococcus aureus; [5]): 1
- SA germ count, 28 days (Staphylococcus aureus; [8]): 1
- number of microorganisms, 14 days (Staphylococcus aureus; [9]): 1
- number of microorganisms, 28 days (Staphylococcus aureus; [10]): 1
- number of microorganisms, 28 days (Staphylococcus aureus; PET, 28 days after inoculation): 1
- germ count EC, 2 days (Escherichia coli; [2]): 170.000
- EC germ count, 2 days (Escherichia coli; 2 days after inoculation, substance at given % in test formulation): 170.000
- germ count EC, 7 days (Escherichia coli; [3]): 1.600
- EC germ count, 7 days (Escherichia coli; [6]): 1.600
- germ count EC, 14 days (Escherichia coli; [4]): 82
- EC germ count, 14 days (Escherichia coli; [7]): 82
- germ count EC, 28 days (Escherichia coli; [5]): 1
- EC germ count, 28 days (Escherichia coli; [8]): 1
- number of microorganisms, 7 days (Escherichia coli; PET in shampoo, Escherichia coli (EC), 7 days after inoculation, listed as 0,4% 2,3 Heptandiol): 100.000
- number of microorganisms, 14 days (Escherichia coli; PET in shampoo, Escherichia coli (EC), 14 days after inoculation, listed as 0,4% 2,3 Heptandiol): 75.000
- number of microorganisms, 28 days (Escherichia coli; PET in shampoo, Escherichia coli (EC), 28 days after inoculation, listed as 0,4% 2,3 Heptandiol): 380.000
- number of microorganisms, 28 days (Escherichia coli; [11]): 1
- germ count CA, 28 days (Candida albicans; [5]): 370.000
- CA germ count, 28 days (Candida albicans; [8]): 370.000
- number of microorganisms, 28 days (Candida albicans; [10]): 1
- antimicrobial efficacy against yeast (yeast): antimicrobial efficacy
- Maximum solubility in water [1]: 3.6 % by weight

SMILES: CCCCCC(O)C(C)O (stereo not drawn) [2,3-octanediol]
- PA germ count, 2 days (Pseudomonas aeruginosa; 2 days after inoculation): 1
- PA germ count, 7 days (Pseudomonas aeruginosa; 7 days after inoculation): 1
- PA germ count, 14 days (Pseudomonas aeruginosa; 14 days after inoculation): 1
- PA germ count, 28 days (Pseudomonas aeruginosa; 28 days after inoculation): 1
- count at 2 days (Pseudomonas aeruginosa; 2 days after inoculation): 1
- count at 7 days (Pseudomonas aeruginosa; 7 days after inoculation): 1
- count at 14 days (Pseudomonas aeruginosa; 14 days after inoculation): 1
- count at 28 days (Pseudomonas aeruginosa; 28 days after inoculation): 1
- SA germ count, 14 days (Staphylococcus aureus; [7]): 1
- SA germ count, 28 days (Staphylococcus aureus; [8]): 1
- number of microorganisms, 7 days (Staphylococcus aureus; PET in shampoo, 7 days after inoculation): 1
- number of microorganisms, 14 days (Staphylococcus aureus; [9]): 1
- number of microorganisms, 28 days (Staphylococcus aureus; [10]): 1
- number of microorganisms, 7 days (Staphylococcus aureus; PET, 7 days after inoculation): 84.000
- number of microorganisms, 14 days (Staphylococcus aureus; PET, 14 days after inoculation): 1
- number of microorganisms, 28 days (Staphylococcus aureus; PET, 28 days after inoculation): 1
- count at 2 days (Staphylococcus aureus; SA, 2 days after inoculation, use concentration in label): 520.000
- count at 7 days (Staphylococcus aureus; [12]): 9.300
- count at 14 days (Staphylococcus aureus; SA, 14 days after inoculation, use concentration in label): 1
- count at 28 days (Staphylococcus aureus; SA, 28 days after inoculation, use concentration in label): 1
- count at 2 days (Escherichia coli; [13]): 130.000
- count at 7 days (Escherichia coli; [14]): 19.000
- count at 14 days (Escherichia coli; [15]): 290
- count at 28 days (Escherichia coli; EC, 28 days after inoculation, use concentration in label): 18
- number of microorganisms, 28 days (Escherichia coli; PET in shampoo, Escherichia coli (EC), 28 days after inoculation, listed as 0,4% 2,3 Octanediol): 600.000
- number of microorganisms, 2 days (Escherichia coli; PET, Escherichia coli (EC), 2 days after inoculation): 48.000
- number of microorganisms, 7 days (Escherichia coli; PET, Escherichia coli (EC), 7 days after inoculation): 290
- number of microorganisms, 14 days (Escherichia coli; PET, Escherichia coli (EC), 14 days after inoculation): 1
- number of microorganisms, 28 days (Escherichia coli; [11]): 1
- count at 2 days (Candida albicans; CA, 2 days after inoculation, use concentration in label): 660.000
- count at 7 days (Candida albicans; CA, 7 days after inoculation, use concentration in label): 210.000
- count at 14 days (Candida albicans; CA, use concentration in label): 120.000
- count at 28 days (Candida albicans; [16]): 11.000
- number of microorganisms, 28 days (Candida albicans; [10]): 1
- number of microorganisms, 28 days (Candida albicans; PET, 28 days after inoculation): 390.000
- count at 2 days (Aspergillus brasiliensis; AB, 2 days after inoculation, use concentration in label): 940.000
- count at 7 days (Aspergillus brasiliensis; AB, use concentration in label): 660.000
- count at 14 days (Aspergillus brasiliensis; [17]): 820.000
- count at 28 days (Aspergillus brasiliensis; AB, use concentration in label): 560.000
- number of microorganisms, 14 days (Aspergillus brasiliensis; PET in shampoo, Aspergillus brasiliensis (AB), 14 days after inoculation, listed as 0,1% 2,3 Octanediol): 250.000
- antimicrobial efficacy against yeast (yeast): antimicrobial efficacy
- Maximum solubility in water [1]: 1.5 % by weight

SMILES: O=C([O-])CC[C@@H](C(=O)[O-])N(CC(=O)[O-])CC(=O)[O-].[Na+].[Na+].[Na+].[Na+]
- count at 2 days (Pseudomonas aeruginosa; 2 days after inoculation): 43.000
- count at 7 days (Pseudomonas aeruginosa; 7 days after inoculation): 95.000
- count at 14 days (Pseudomonas aeruginosa; 14 days after inoculation): 510.000
- count at 28 days (Pseudomonas aeruginosa; 28 days after inoculation): 350.000
- count at 7 days (Staphylococcus aureus; [12]): 810.000
- count at 2 days (Escherichia coli; [13]): 50.000
- count at 7 days (Escherichia coli; [14]): 23.000
- count at 14 days (Escherichia coli; [15]): 450.000
- count at 14 days (Candida albicans; CA, use concentration in label): 200.000
- count at 28 days (Candida albicans; [16]): 390.000
- count at 7 days (Aspergillus brasiliensis; AB, use concentration in label): 440.000
- count at 14 days (Aspergillus brasiliensis; [17]): 720.000
- count at 28 days (Aspergillus brasiliensis; AB, use concentration in label): 660.000
